Source: patent US10442837B2, “Scorpion venom heat-resistant synthetic peptide and applications thereof” (priority 2016, dated 2019)
Peptide text beside a SMILES is read from it.

Columns and labels:
Kunming mice [1] = assay: Acute toxicity test, intraperitoneal injection; format: in vivo; conditions: 78.6 mg/kgBW ip
Kunming mice [2] = assay: Acute toxicity test, intraperitoneal injection; format: in vivo
Excerpt: 1) Main Observation Indicators:
(2) Minimal lethal dose (MLD): a dose that causes death in individual tested animals;
(3) The highest dose of nontoxic reaction (highest nontoxic dose): that is, no observed adverse effect level ([…]), i.e. the highest dose under which no injury is found for animals in a certain period of time;
(4) Minimum toxic reaction dose: minimum dose of toxic reaction in animals: that is the lowest dose of the toxic reaction in animals whose toxic responses are just caused.
(1) Tested animals: Kunming mice, half male and half female (healthy adult, weight 19-20 g);
(2) Subjects: SVHRSP: • a. source: BmK scorpion venom extract purchased from Henan Yichang Xinxin Scorpion Factory (May 28, 2012); • b. Lot No: P160418-CQ455216; • c. Content (or specification): 10 mg/piece; • d. Preservation conditions and preparation methods: −20° C. for long-term preservation, 4° C. for preservation within 7-10 d, and redissolved with millipore water when in use.
(3) Administration Route: respectively ip (intraperitoneal injection) route (the largest volume commonly used in mice ip route administration is 0.1-1.0 ml/20 gBW) the optimal administration doses to the animals (the doses are different, but the administration capacity is identical) are selected according to the route of administration, and 0.2 ml/20 gBW is adopted for the ip administration routes in this experiment.
According to the approximate lethal dose method, list the possible sequences:
the possible maximum tolerance dose and the possible minimum lethal dose of the SVHRSP are estimated according to the acute toxicity test results of the former scorpion venom heat-resistant polypeptide on Kunming mice. Then, a dose sequence table containing several doses is designed according to the 50% incremental method:
The possible lethal dose ranges (115.2, 76.8, 51.2, 34.1 mg/kg) are found from the estimated dose sequence list, where each dose is given to one animal, the minimum lethal dose and the maximum tolerated dose are measured, and then the dose between the two is given to an animal. If the animal under this dose doesn't die, the range between this dose and the minimum lethal dose is the approximate lethal dose range; if the animal under this dose dies, the range between this dose and the maximum tolerance dose is the approximate lethal dose range.

[3] = tested on: lithium-pilocarpine epilepsy model rats; assay: Lithium-pilocarpine refractory epilepsy chronic model, episodes; format: in vivo, SD rats; conditions: 300 mg/kg, n = 9
Description: (1) Selection and groups of animals that 180 g healthy male SD rats are selected. Lithium-pilocarpine ip (intraperitoneal administration) 300 mg/kg is used to induce temporal lobe epilepsy episodes. After 15 days of acute epilepsy episode, epilepsy rats are randomly divided into a model group and a model administration group. […] The levels of epilepsy are observed and recorded, and graded according to Racine as the evaluation criteria.

CC(C)C[C@H](NC(=O)[C@@H](NC(=O)[C@@H](N)CCCCN)C(C)C)C(=O)N[C@@H](CC(N)=O)C(=O)NCC(=O)N1CCC[C@H]1C(=O)N[C@@H](CCC(=O)O)C(=O)N[C@@H](CCC(=O)O)C(=O)N[C@@H](CCC(=O)O)C(=O)N[C@@H](C)C(=O)N[C@@H](C)C(=O)N[C@@H](C)C(=O)N1CCC[C@H]1C(=O)N[C@@H](C)C(=O)N[C@@H](CCC(=O)O)C(=O)O [SVHRSP] (H-KVLNGPEEEAAAPAE-OH)
Lethal (%) (Kunming mice [1]): 0%
Survival (%) (Kunming mice [1]): 100%
Lethal (%) (Kunming mice [2]; 115.2 mg/kgBW ip): 0%
Survival (%) (Kunming mice [2]; 115.2 mg/kgBW ip): 100%
Lethal (%) (Kunming mice [2]; 172.8 mg/kgBW ip): 0%
Survival (%) (Kunming mice [2]; 172.8 mg/kgBW ip): 100%
Lethal (%) (Kunming mice [2]; 500 mg/kgBW ip): 0%
Survival (%) (Kunming mice [2]; 500 mg/kgBW ip): 100%
Lethal (%) (Kunming mice [2]; 2000 mg/kgBW ip): 0%
Survival (%) (Kunming mice [2]; 2000 mg/kgBW ip): 100%
Toxic Reaction (Kunming mice [2]; 2000 mg/kgBW ip): no any toxic reaction is observed
ratio of medicinal safety and pharmacodynamic activity (2000/0.05) (Kunming mice [2]; ip 2000 mg/kg vs 0.05 mg/kg effective dose): > 40,000 times
maximum non-toxic dose (highest nontoxic dose, no observed adverse effect level) (Kunming mice [2]; ip, up to 2000 mg/kg·BW): has not reached yet

CCCC(CCC)C(=O)[O-].[Na+] [sodium valproate]
Total Episode Averages superimposed ± Standard Deviation ([3]; First day): 2.67 ± 0.85
Total Episode Averages superimposed ± Standard Deviation ([3]; First eight days): 15.11 ± 2.73
Total Episode Averages superimposed ± Standard Deviation ([3]; First eleven days): 18.89 ± 3.13
Total Episode Averages superimposed ± Standard Deviation ([3]; First fifteen days): 23.56 ± 3.79
Total Episode Averages superimposed ± Standard Deviation ([3]; First five days): 11.67 ± 2.24
Total Episode Averages superimposed ± Standard Deviation ([3]; First four days): 9.56 ± 1.96
Total Episode Averages superimposed ± Standard Deviation ([3]; First fourteen days): 22.67 ± 3.56
Total Episode Averages superimposed ± Standard Deviation ([3]; First nine days): 16.33 ± 3.05
Total Episode Averages superimposed ± Standard Deviation ([3]; First seven days): 13.89 ± 2.45
Total Episode Averages superimposed ± Standard Deviation ([3]; First six days): 12.67 ± 2.30
Total Episode Averages superimposed ± Standard Deviation ([3]; First ten days): 17.55 ± 2.91
Total Episode Averages superimposed ± Standard Deviation ([3]; First thirteen days): 21.78 ± 3.58
Total Episode Averages superimposed ± Standard Deviation ([3]; First twelve days): 20.56 ± 3.33
Total Episode Averages superimposed ± Standard Deviation ([3]; First two days): 5.56 ± 1.27
